Source: patent publication US9127301B2, “Method of detecting the presence of polycyclic aromatic hydrocarbons” (BIOO SCIENTIFIC CORPORATION, priority 2012, dated 2015)

Key:
NDO/NahB/NahC [1] = target: T1, NDO/NahB/NahC (Pseudomonas putida, UniProt P0A110); experiment: Coupled naphthalene dioxygenase/NahB/NahC colorimetric assay; format: biochemical
T1 construct: made in house; host or cells: E. coli JM109 (DE3) (pDTG141) for NDO; E. coli BL21 Star (DE3) for NahB and NahC
From the text: This disclosure relates to a method that uses microbial enzymes which degrade polyaromatic hydrocarbons to detect polycyclic aromatic hydrocarbons (PAH) in food and environmental samples. The first step in PAH degradation uses a PAH dioxygenase (PAHDO) enzyme such as naphthalene 1,2-dioxygenase (NDO) or biphenyl dioxygenase (BDO) to convert the PAH compound to PAH-(cis)-diol in an NADH- or NADPH-dependent manner.
The first reaction is catalyzed by the 1,2-dihydroxy-1,2-dihydronaphthalene dehydrogenase enzyme (NahB), while the second reaction is catalyzed by the enzyme 1,2-dihydroxynaphthalene dioxygenase (NahC). These enzymes are both derived from the bacteria Pseudomonas putida.
When these enzymes are used in succession, they function sequentially to convert colorless PAH compounds into a readily-detectable visible product class known as PAH chromene compounds.
(§1) 2 tubes each of NahB, Nahc, and NDO enzymes (1.7 ml aliquotes) were thawed from −20 C along with 2.6 mM NADH in water. 2.5 ml each of the NahC and NahB enzymes were desalted using PD-10 gel filtration and buffer exchanged into 20 mM Tris-Cl pH 8.5 at the same time. Once all of the reagents were thawed and desalted, positive and negative naphthalene reaction were made containing 127 ul each of NahB, NahC, and NDO with 20 ppm naphthalene in dimethylformamide (negative reactions contained only equal amounts dimethylformamide) and 0.133 mM NADH final concentration with a final reaction volume of 405 ul. The reaction was run at 25° C. for 2 hours and the sample absorbance was measured using a BioTek Synergy2 plate reader in the 320-640 nm wavelength range. […] Reactions for all PAH's conducted in the same, or a very similar format, depending on the volume of sample in the reaction. FIG. 4 depicts a spectrophotometric graph showing the absorbance caused by the presence of naphthalene placed in the above NDO/NahB/NahC assay.

NDO/NahB/NahC [2] = target: T1, NDO/NahB/NahC; experiment: Colorimetric detection of fluorene in spiked clam samples, NDO/NahB/NahC assay; format: biochemical; conditions: clam homogenate spiked to 80 ppm fluorene, dichloromethane extraction, 10 μl of 200 ppm DMF solution in 411 μl reaction, 2 hr, 25° C.
Description: as §1
Approximately 25 g of clams were homogenized using a blender; a 2 g sample of this 25 g preparation was spiked to 80 ppm fluorene. […] The reaction was run for 2 hr at 25° C. and then read on a BioTek Synergy2 plate reader from 320-640 nm. FIG. 5 depicts the absorbance of fluorene spiked clam samples in the NDO/NahB/NahC assay.

T1 sequence (P0A110 whole entry): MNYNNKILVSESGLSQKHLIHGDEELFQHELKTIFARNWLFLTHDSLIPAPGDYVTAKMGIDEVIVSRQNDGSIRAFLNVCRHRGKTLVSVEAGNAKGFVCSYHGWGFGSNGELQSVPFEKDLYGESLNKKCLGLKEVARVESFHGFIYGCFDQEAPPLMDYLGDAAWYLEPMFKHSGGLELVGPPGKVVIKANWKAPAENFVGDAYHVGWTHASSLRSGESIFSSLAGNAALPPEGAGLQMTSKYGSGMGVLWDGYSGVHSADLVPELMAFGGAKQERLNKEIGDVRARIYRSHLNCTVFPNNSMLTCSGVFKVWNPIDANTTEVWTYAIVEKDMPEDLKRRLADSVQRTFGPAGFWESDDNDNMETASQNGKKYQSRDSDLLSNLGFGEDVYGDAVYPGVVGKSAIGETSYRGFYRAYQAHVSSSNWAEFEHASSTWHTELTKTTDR
T1 sequence (P0A112 whole entry, further chain): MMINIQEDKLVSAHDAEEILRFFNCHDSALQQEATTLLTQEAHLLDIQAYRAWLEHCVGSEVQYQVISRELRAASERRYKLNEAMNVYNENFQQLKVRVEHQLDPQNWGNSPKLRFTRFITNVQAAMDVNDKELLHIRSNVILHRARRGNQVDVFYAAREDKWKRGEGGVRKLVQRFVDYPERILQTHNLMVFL

Row | Compound | detection of PAH compound by the colorimetric assay (NDO/NahB/NahC [1]) | absorbance at 370 nm versus negative control reaction (NDO/NahB/NahC [1]; 20 ppm naphthalene in dimethylformamide, 0.133 mM NADH, 25° C., 2 hours) | absorbance at 390 nm versus buffer control or post-extraction spike (NDO/NahB/NahC [2])
1 | c1ccc2c(c1)cc1ccc3cccc4ccc2c1c34 [benz(a)pyrene] | detect |  | 
2 | c1ccc2ccccc2c1 [naphthalene] | detect | significantly higher | 
3 | c1ccc(-c2ccccc2)cc1 [biphenyl] | detect |  | 
4 | c1ccc2c(c1)ccc1ccccc12 [phenanthrene] | detect |  | 
5 | c1ccc2c(c1)Cc1ccccc1-2 [fluorene] | detect |  | slightly higher
6 | c1ccc2cc3ccccc3cc2c1 [anthracene] | detect |  | 
7 | c1ccc2c(c1)[nH]c1ccccc12 [carbazole] | detect |  | 
